According to ChEMBL document CHEMBL4038316, “Enantioselective Synthesis and in Vivo Evaluation of Regioisomeric Analogues of the Antimalarial Arterolane” (J Med Chem, 2017):
pEC50: −log10 of the molar value. ≈ marks a conversion by molar mass, not a printed value.

Experiments:
[1] = system: Plasmodium falciparum; test: Antiplasmodial activity against chloroquine-resistant Plasmodium falciparum W2 infected in human RBC after 48 hrs by YOYO-1 staining-based flow cytometry method; format: functional; conditions: W2, 48 h
[2] = system: Liver; conditions: mouse, microsomes
Description: (§3) Intrinsic clearance in mouse liver microsomes assessed per mg of protein

[3] = system: Plasmodium berghei; test: Antiplasmodial activity against Plasmodium berghei infected in Swiss Webster mouse assessed as cure rate at 4 mg/kg/day administered for 4 days via oral gavage starting at 1 hr post infection measured after 30 days relative to control; format: functional
[4] = system: Liver; test: (§1) Half life in mouse liver microsomes; format: ADME, microsome; conditions: microsomes
[5] = system: Liver; test: (§2) Half life in mouse liver microsomes in absence of NADPH; format: ADME, microsome; conditions: microsomes
[6] = system: Plasmodium berghei; test: Antiplasmodial activity against Plasmodium berghei infected in Swiss Webster mouse assessed as cure rate at 6 mg/kg/day administered for 4 days via oral gavage starting at 1 hr post infection measured after 30 days relative to control; format: functional
[7] = system: Liver; test: Metabolic stability in mouse liver microsomes in absence of NADPH; format: ADME, microsome
[8] = in vitro; conditions: mouse, liver microsomes
Description: as §3

[9] = as §1; format: ADME, microsome; conditions: liver microsomes
[10] = system: Plasmodium berghei; test: Antiplasmodial activity against Plasmodium berghei infected in Swiss Webster mouse assessed as cure rate at 13.6 mg/kg/day administered for 4 days via oral gavage starting at 1 hr post infection measured after 30 days relative to control; format: functional
[11] = system: Plasmodium berghei; test: Antiplasmodial activity against Plasmodium berghei infected in Swiss Webster mouse assessed as increase in cure rate administered for 4 days via oral gavage starting at 1 hr post infection measured after 30 days; format: functional; conditions: for ED50: Plasmodium berghei, po, read-out: PD50
[12] = system: Plasmodium berghei; test: Antiplasmodial activity against Plasmodium berghei infected in Swiss Webster mouse assessed as cure rate at 9.5 mg/kg/day administered for 4 days via oral gavage starting at 1 hr post infection measured after 30 days relative to control; format: functional
[13] = system: Plasmodium berghei; test: Antiplasmodial activity against Plasmodium berghei infected in Swiss Webster mouse assessed as cure rate at 10 mg/kg/day administered for 4 days via oral gavage starting at 1 hr post infection measured after 30 days relative to control; format: functional
[14] = system: Plasmodium berghei; test: Antiplasmodial activity against Plasmodium berghei infected in Swiss Webster mouse assessed as cure rate at 1 mg/kg/day administered for 4 days via oral gavage starting at 1 hr post infection measured after 30 days relative to control; format: functional
[15] = physchem; conditions: PBS, pH 7.4
Description: (§4) Kinetic solubility of the compound in PBS at pH 7.4

[16] = system: Plasmodium berghei; test: Antiplasmodial activity against Plasmodium berghei infected in Swiss Webster mouse assessed as cure rate at 4 mg/kg/day administered for 2 days via oral gavage starting at 1 hr post infection measured after 30 days relative to control; format: functional
[17] = system: Plasmodium berghei; test: Antiplasmodial activity against Plasmodium berghei infected in Swiss Webster mouse assessed as cure rate at 4 mg/kg/day administered for 1 day via oral gavage starting at 1 hr post infection measured after 30 days relative to control; format: functional
[18] = system: Plasmodium berghei; test: Antiplasmodial activity against Plasmodium berghei infected in Swiss Webster mouse assessed as cure rate at 40 mg/kg/day administered for 2 days via oral gavage starting at 1 hr post infection measured after 30 days relative to control; format: functional
[19] = system: Plasmodium berghei; test: Antiplasmodial activity against Plasmodium berghei infected in Swiss Webster mouse assessed as cure rate at 40 mg/kg/day administered for 1 day via oral gavage starting at 1 hr post infection measured after 30 days relative to control; format: functional
[20] = system: Plasmodium berghei; test: Antiplasmodial activity against Plasmodium berghei infected in Swiss Webster mouse assessed as cure rate at 0.5 mg/kg/day administered for 4 days via oral gavage starting at 1 hr post infection measured after 30 days relative to control; format: functional
[21] = as §2; format: ADME, microsome; conditions: liver microsomes
[22] = system: Plasmodium berghei; test: Antiplasmodial activity against Plasmodium berghei infected in Swiss Webster mouse assessed as cure rate at 4 mg/kg/day administered for 3 days via oral gavage starting at 1 hr post infection measured after 30 days relative to control; format: functional
[23] = system: Plasmodium berghei; test: Antiplasmodial activity against Plasmodium berghei infected in Swiss Webster mouse assessed as cure rate at 80 mg/kg/day administered for 1 day via oral gavage starting at 1 hr post infection measured after 30 days relative to control; format: functional
[24] = system: Plasmodium berghei; test: Antiplasmodial activity against Plasmodium berghei infected in Swiss Webster mouse assessed as cure rate at 2 mg/kg/day administered for 4 days via oral gavage starting at 1 hr post infection measured after 30 days relative to control; format: functional
[25] = system: Plasmodium falciparum; test: Antiplasmodial activity against Plasmodium falciparum Cam3.2_rev infected in human RBC assessed as time required to reduce early ring stage parasite viability by 50% by SYTO 61-staining-based flow cytometry; format: functional
[26] = system: Plasmodium falciparum; test: Antiplasmodial activity against Plasmodium falciparum Cam3.2 infected in human RBC assessed as time required to reduce early ring stage parasite viability by 50% by SYTO 61-staining-based flow cytometry; format: functional
[27] = buffer, pH 7.4
Description: as §4

O=C(C[C@H]1CC[C@]2(CC1)OO[C@]1(O2)C2CC3CC(C2)CC1C3)N1CCNCC1
pEC50 [1]: 8.72
CLH [2]: 14.4 µL/min
Activity [3]: 100%
t1/2 [4]: 48.1 min
t1/2 [5]: 88.9 min
Activity [6]: 100%

NCCNC(=O)C[C@H]1CC[C@]2(CC1)OO[C@]1(O2)C2CC3CC(C2)CC1C3
pEC50 [1]: 8.44
CLH [2]: 10.8 µL/min
Activity [3]: 0%
t1/2 [4]: 64.2 min
t1/2 [5]: 70 min
Activity [6]: 20%

CC(C)(CN)CNC(=O)C[C@H]1CC[C@]2(CC1)OO[C@]1(O2)C2CC3CC(C2)CC1C3
Stability [7]: Stable
pEC50 [1]: 8.59
CLH [2]: 4.3 µL/min
Activity [3]: 40%
t1/2 [4]: 161 min
Activity [6]: 100%

N[C@H]1CC[C@H](NC(=O)C[C@H]2CC[C@]3(CC2)OO[C@]2(O3)C3CC4CC(C3)CC2C4)CC1
pEC50 [1]: 8.35
Activity [3]: 80%
Activity [6]: 80%

NC1CCN(C(=O)C[C@H]2CC[C@]3(CC2)OO[C@]2(O3)C3CC4CC(C3)CC2C4)CC1
Stability [7]: Stable
pEC50 [1]: 8.89
CLH [2]: 2.5 µL/min
Activity [3]: 100%
t1/2 [4]: 277 min
Activity [6]: 100%

NC(=O)CNC(=O)C[C@@H]1CCC[C@]2(C1)OOC1(O2)C2CC3CC(C2)CC1C3 (stereo not given in full)
Stability [7]: Stable
pEC50 [1]: 7.97
microsomal CLint [8]: 18.6 µL/min/mg
half-life [9]: 37.3 min

CN1CCN(C(=O)C[C@@H]2CCC[C@]3(C2)OOC2(O3)C3CC4CC(C3)CC2C4)CC1 (stereo not given in full)
pEC50 [1]: 8.36
Activity [3]: 0%
Activity [6]: 0%

CC(C)(N)CNC(=O)C[C@H]1CC[C@]2(CC1)OOC1(O2)C2CC3CC(C2)CC1C3.Cc1ccc(S(=O)(=O)O)cc1 (stereo not given in full)
Activity [10]: 100%

CC(C)(CN)CNC(=O)C[C@@H]1CCC[C@]2(C1)OOC1(O2)C2CC3CC(C2)CC1C3 (stereo not given in full)
Stability [7]: Stable
pEC50 [1]: 8.39
microsomal CLint [8]: 10.8 µL/min/mg
Activity [3]: 0%
half-life [9]: 64.2 min
Activity [6]: 0%

CN1CCN(C(=O)C[C@H]2CC[C@]3(CC2)OO[C@]2(O3)C3CC4CC(C3)CC2C4)CC1
pEC50 [1]: 8.31
Activity [3]: 0%
Activity [6]: 0%

O=C(C[C@@H]1CCC[C@]2(C1)OOC1(O2)C2CC3CC(C2)CC1C3)N1CCNCC1 (stereo not given in full)
Stability [7]: Stable
pEC50 [1]: 8.54
microsomal CLint [8]: 27.2 µL/min/mg
Activity [3]: 0%
half-life [9]: 25.5 min
Activity [6]: 20%

CC(C)(N)CNC(=O)C[C@@H]1CCC[C@]2(C1)OOC1(O2)C2CC3CC(C2)CC1C3.Cc1ccc(S(=O)(=O)O)cc1 (stereo not given in full)
Activity [10]: 100%

CC(C)(N)CNC(=O)C[C@@H]1CCC[C@]2(C1)OOC1(O2)C2CC3CC(C2)CC1C3 (stereo not given in full)
Stability [7]: Stable
PD100 [11]: 10 mg/kg/day
ED50 [11]: 6 mg/kg/day
pEC50 [1]: 8.52
microsomal CLint [8]: 4.1 µL/min/mg
Activity [12]: 100%
half-life [9]: 169 min
Activity [6]: 60%
Activity [13]: 100%
Activity [14]: 0%
solubility kinetic [15]: 429 µM (≈ 168 µg/mL)

O=C(C[C@@H]1CCC[C@]2(C1)OOC1(O2)C2CC3CC(C2)CC1C3)N1CCOCC1 (stereo not given in full)
pEC50 [1]: 8.17
Activity [3]: 0%
Activity [6]: 0%

O=C(C[C@@H]1CCC[C@]2(C1)OOC1(O2)C2CC3CC(C2)CC1C3)N1CCCCC1 (stereo not given in full)
pEC50 [1]: 7.50

NC1CCN(C(=O)C[C@@H]2CCC[C@]3(C2)OOC2(O3)C3CC4CC(C3)CC2C4)CC1 (stereo not given in full)
Stability [7]: Stable
PD100 [11]: 4 mg/kg/day
pEC50 [1]: 8.41
microsomal CLint [8]: 8.2 µL/min/mg
half-life [9]: 84.5 min

NCCNC(=O)C[C@@H]1CCC[C@]2(C1)OOC1(O2)C2CC3CC(C2)CC1C3 (stereo not given in full)
Activity [16]: 0%
Activity [17]: 0%
Activity [18]: 100%
pEC50 [1]: 8.27
microsomal CLint [8]: 8.2 µL/min/mg
Activity [19]: 0%
half-life [9]: 84.5 min
Activity [20]: 0%
half-life [21]: 136 min
Activity [6]: 100%
Activity [22]: 20%
Activity [23]: 20%
Activity [24]: 0%
Activity [14]: 0%

N[C@H]1CC[C@H](NC(=O)C[C@@H]2CCC[C@]3(C2)OOC2(O3)C3CC4CC(C3)CC2C4)CC1 (stereo not given in full)
pEC50 [1]: 8.23
Activity [3]: 60%
Activity [6]: 100%

NC(=O)CNC(=O)C[C@H]1CC[C@]2(CC1)OO[C@]1(O2)C2CC3CC(C2)CC1C3
Stability [7]: Stable
pEC50 [1]: 8.04
CLH [2]: 5.6 µL/min
Activity [3]: 0%
t1/2 [4]: 124 min
Activity [6]: 0%

O=C(C[C@H]1CC[C@]2(CC1)OO[C@]1(O2)C2CC3CC(C2)CC1C3)N1CCCCC1
pEC50 [1]: 7.24
Activity [3]: 0%
Activity [6]: 0%

O=C(C[C@H]1CC[C@]2(CC1)OO[C@]1(O2)C2CC3CC(C2)CC1C3)N1CCOCC1
pEC50 [1]: 7.68
Activity [3]: 0%
Activity [6]: 0%

c1cc([C@H]2CC[C@]3(CC2)OO[C@]2(O3)C3CC4CC(C3)CC2C4)ccc1OCCN1CCOCC1 [ARTEFENOMEL]
Time [25]: 2 h
Time [26]: 5 h

C[C@H]1[C@@H](O)O[C@@H]2O[C@@]3(C)CC[C@H]4[C@H](C)CC[C@@H]1[C@@]24OO3 [ARTENIMOL]
Time [25]: 1 h
Time [26]: 3 h

O=C(O)Cc1ccccc1Nc1c(Cl)cccc1Cl [DICLOFENAC]
CLH [2]: 12.5 µL/min

Cc1ncc2n1-c1ccc(Cl)cc1C(c1ccccc1F)=NC2 [MIDAZOLAM]
CLH [2]: 420 µL/min
t1/2 [4]: 1.65 min

CC(C)(N)CNC(=O)C[C@H]1CC[C@]2(CC1)OO[C@]1(O2)C2CC3CC(C2)CC1C3 [OZ277]
Stability [7]: Stable
PD100 [11]: 10 mg/kg/day
ED50 [11]: 4 mg/kg/day
pEC50 [1]: 8.60
CLH [2]: 5.4 µL/min
Activity [3]: 20 - 80%
t1/2 [4]: 128 min
Activity [6]: 80 - 100%
Activity [13]: 100%
Time [25]: 1 h
Time [26]: 3 h
Activity [14]: 0%

C[C@]12CC[C@H]3[C@@H](CCC4=CC(=O)CC[C@@]43C)[C@@H]1CC[C@@H]2O [TESTOSTERONE]
Kinetic_solubility [27]: 315 µM
